Experimental findings from patent publication US20140248221A1, “COMPOSITIONS FOR ORAL USE AND METHODS FOR TREATING THE ORAL MUCOSA, LIPS, AND PERIORAL REGIONS” (JR CHEM, LLC, priority 2011, published 2014) are described below.

This assay can be described thus: zone of inhibition activity. It is filed as cell-based. The note with it: compared with zn bacitracin.

In the case of Cu-zn bacitrate, the “zone of inhibition activity” value was “greater zone of inhibition activity than zn bacitracin”.
